Where two headings read alike, the source gives them in different places.
Experiments:
[1] = system: calf brain tubulin; test: In vitro tubulin polymerization; type: biochemical; conditions: interpolated concentration inducing an initial slope of 0.01 OD/minute; 1.0 mg/ml microtubule protein, 37°; read-out: Tubulin assay EC0.01
Experimental: In vitro Tubulin Polymerization
Twice cycled (2×) calf brain tubulin was prepared following the procedure of Williams and Lee (see Williams, R. C., Jr., and Lee, J. C. Preparation of tubulin from brain. Methods in Enzymology 85, Pt. D: 376-385, 1982) and stored in liquid nitrogen before use. Quantification of tubulin polymerization potency is accomplished following a modified procedure of Swindell, et al., (see Swindell, C. S., Krauss, N. E., Horwitz, S. B., and Ringel, L. Biologically active taxol analogues with deleted A-ring side chain substituents and variable C-2′ configurations. J. Med. Chem. 34: 1176-1184, 1991). These modifications, in part, result in the expression of tubulin polymerization potency as an effective concentration for any given compound. For this method, different concentrations of compound in polymerization buffer (0.1M MES, 1 mM EGTA, 0.5 mM MgCl2, pH 6.6) are added to tubulin in polymerization buffer at 37° in microcuvette wells of a Beckman (Beckman Instruments) Model DU 7400 UV spectrophotometer. A final microtubule protein concentration of 1.0 mg/ml and compound concentration of generally 2.5, 5.0, and 10 μM are used. Initial slopes of OD change measured every 10 seconds were calculated by the program accompanying the instrument after initial and final times of the linear region encompassing at least 3 time points were manually defined. Under these conditions linear variances were generally <10^−6, slopes ranged from 0.03 to 0.002 absorbance unit/minute, and maximum absorbance was 0.15 absorbance units. Effective concentration (EC0.01) is defined as the interpolated concentration capable of inducing an initial slope of 0.01 OD/minute rate and is calculated using the formula: EC0.01=concentration/slope. EC0.01 values are expressed as the mean with standard deviation obtained from 3 different concentrations. EC0.01 values for the compounds in this invention fall in the range 0.01-1000 μM.

[2] = system: HCT-116 human colon carcinoma cells; test: Cytotoxicity (in vitro) by MTS assay; type: cell-based; conditions: read-out: HTC-116 assay IC50
Experimental: Cytoxicity was assessed in HCT-116 human colon carcinoma cells by MTS (3-(4,5-dimethylthiazol-2-yl)-5-(3-carboxymethoxyphenyl)-2-(4-sulphenyl)-2H-tetrazolium, inner salt) assay as reported in T. L. Riss, et. al., “Comparison of MTT, XTT, and a novel tetrazolium compound MTS for in vitro proliferation and chemosensitivity assays.,” Mol. Biol. Cell 3 (Suppl.): 184a, 1992. Cells were plated at 4,000 cell/well in 96 well microtiter plates and 24 hours later drugs were added and serial diluted. The cells were incubated at 37° form 72 hours at which time the tetrazolium dye, MTS at 333 μg/ml (final concentration), in combination with the electron coupling agent phenazine methosulfate at 25 μM (final concentration) was added. A dehydrogenase enzyme in live cells reduces the MTS to a form that absorbs light at […] which can be quantitated spectrophotometrically. The greater the absorbance the greater the number of live cells. The results are expressed as an IC50, which is the drug concentration required to inhibit cell proliferation (i.e. absorbance at 450 nm) to 50% of that of untreated control cells.

[3] = HCT-116, 72 hours incubation, MTS

Compound | EC50 [1] [µM] | IC50 ([2]; HCT-116, 72 h) [µM] | IC50 [2, 3] [µM]
C/C(=C\c1csc(C)n1)[C@@H]1C[C@@H]2NC2CCCC(C)[C@H](O)[C@@H](C)C(=O)C(C)(C)[C@@H](O)CC(=O)O1 (relative stereo) [Example 1, [1S-[1R*,3R*(E),7R*,10S*,11R*,12R*,16S*]]-7,11-Dihydroxy-8,8,10,12-tetramethyl-3-[1-methyl-2-(2-methyl-4-thiazolyl)ethenyl]-4-oxa-17-azabicyclo[14.1.0]heptadecane-5,9-dione.] | 14 | 0.0027 | –
C/C(=C\c1csc(C)n1)[C@@H]1C[C@H]2C(CCCC(C)[C@H](O)[C@@H](C)C(=O)C(C)(C)[C@@H](O)CC(=O)O1)N2C(=O)CN(C)C (relative stereo) [Example 4, [1S-[1R*,3R*(E),7R*,10S*,11R*,12R*,16S*]]-17-[Dimethylamino)acetyl]-7,11-dihydroxy-8,8,10,12-tetramethyl-3-[1-methyl-2(2-methyl-4-thiazolyl)ethenyl]-4-oxa-17-azabicyclo[14.1.0]heptadecane-5,9-dione.] | > 1000 | – | –
C/C(=C\c1csc(C)n1)C1CC2[C@@H](CCC[C@H](C)[C@H](O)[C@@H](C)C(=O)C(C)(C)[C@@H](O)CC(=O)O1)N2C(=O)CC(C)C (relative stereo) [Example 5, [1S-[1R*,3R*(E),7R*,10S*,11R*,12R*,16S*]]-7,11-Dihydroxy-8,8,10,12-tetramethyl-3-[1-methyl-2-(2-methyl-4-thiazolyl)ethenyl]-17-(3-methyl-1-oxobutyl)-4-oxa-17-azabicyclo[14.1.0]heptadecane-5,9-dione.] | 3.5 | – | 0.041
C/C(=C\c1csc(C)n1)C1CC2[C@@H](CCC[C@H](C)[C@H](O)[C@@H](C)C(=O)C(C)(C)[C@@H](O)CC(=O)O1)[N@@]2S(C)(=O)=O (relative stereo) [Example 6, [1S-[1R*,3R*(E), 7R*,10S,11R*,12R*,16S*]]-17-N-Methylsulfonyl-7,11-dihydroxy-8,8,10,12-tetramethyl-3-[1-methyl-2-(2-methyl-4-thiazolyl)ethenyl]-4-oxa-17-azabicyclo[14.1.0]heptadecane-5,9-dione.] | 14 | – | 0.0021
CCNC(=O)N1C2CC(/C(C)=C/c3csc(C)n3)OC(=O)C[C@H](O)C(C)(C)C(=O)[C@H](C)[C@@H](O)[C@@H](C)CCC[C@H]21 (relative stereo) [Example 7, 1S-[1R*,3R*(E),7R*,10S,11R*,12R*,16S*]]-N-Ethyl-7,11-dihydroxy-8,8,10,12-tetramethyl-3-[1-methyl-2-(2-methyl-4-thiazolyl)ethenyl]-4-oxa-17-azabicyclo[14.1.0]heptadecane-5,9-dione-17-carboxamide.] | > 1000 | – | –
C/C(=C\c1csc(C)n1)C1CC2[C@@H](CCC[C@H](C)[C@H](O)[C@@H](C)C(=O)C(C)(C)[C@@H](O)CC(=O)O1)[N@@]2C (relative stereo) [Example 8, [1S-[1R*,3R*(E),7R*,10S*,11R*,12R*,16S*]]-7,11-Dihydroxy-8,8,10,12,17-pentamethyl-3-[1-methyl-2-(2-methyl-4-thiazolyl)ethenyl]-4-oxa-17-azabicyclo[14.1.0]heptadecane-5,9-dione] | 2.6 | 0.00013 | –
C/C(=C\c1csc(C)n1)[C@@H]1C[C@H]2C(CCCC(C)[C@H](O)[C@@H](C)C(=O)C(C)(C)[C@@H](O)CC(=O)O1)[N@@]2Cc1ccccc1 (relative stereo) [Example 15, [1S-[1R*,3R*(E),7R*,10S,11R*,12R*,16S*]]-17-Benzyl-7,11-dihydroxy-8,8,10,12-tetramethyl-3-[1-methyl-2-(2-methyl-4-thiazolyl)ethenyl]-4-oxa-17-azabicyclo[14.1.0]heptadecane-5,9-dione.] | 35 | 0.023 | –
C/C(=C\c1csc(C)n1)[C@@H]1C[C@H]2C(CCCC(C)[C@H](O)[C@@H](C)C(=O)C(C)(C)[C@@H](O)CC(=O)O1)[N@]2S(N)(=O)=O (relative stereo) [Example 16, [1S-[1R*,3R*(E),7R*,10S,11R*,12R*,16S*]]-17-Sulfonylurea-7,11-dihydroxy-8,8,10,12-tetramethyl-3-[1-methyl-2-(2-methyl-4-thiazolyl)ethenyl]-4-oxa-17-azabicyclo[14.1.0]heptadecane-5,9-dione.] | 28 | – | 0.036
CNS(=O)(=O)[N@@]1C2CCCC(C)[C@H](O)[C@@H](C)C(=O)C(C)(C)[C@@H](O)CC(=O)O[C@H](/C(C)=C/c3csc(C)n3)C[C@@H]21 (relative stereo) [Example 17] | 2.3 | – | 0.0078
C/C(=C\c1csc(C)n1)C1CC2[C@@H](CCC[C@H](C)[C@H](O)[C@@H](C)C(=O)C(C)(C)[C@@H](O)CC(=O)O1)[N@@]2S(=O)(=O)N(C)C (relative stereo) [Example 18, [1S-[1R*,3R*(E),7R*,10S*,11R*,12R*,16S*]]-7,11-Dihydroxy-N,N,8,8,10,12-hexamethyl-3-[1-methyl-2-(2-methyl-4-thiazolyl)ethenyl]-5,9-dioxo-4-oxa-17-azabicyclo[14.1.0]heptadecane-17-sulfonamide.] | 1 | – | 0.0002
C/C(=C\c1csc(C)n1)C1CC2[C@@H](CCC[C@H](C)[C@H](O)[C@@H](C)C(=O)C(C)(C)[C@@H](O)CC(=O)O1)[N@@]2S(=O)(=O)N1CCOCC1 (relative stereo) [Example 19, [1S-[1R*,3R*(E),7R*,10S,11R*,12R*,16S*]]-17-Morpholinosulfonyl-7,11-dihydroxy-8,8,10,12-tetramethyl-3-[1-methyl-2-(2-methyl-4-thiazolyl)ethenyl]-4-oxa-17-azabicyclo[14.1.0]heptadecane-5,9-dione.] | 460 | – | 0.16
C/C(=C\c1csc(C)n1)C1CC2[C@@H](CCC[C@H](C)[C@H](O)[C@@H](C)C(=O)C(C)(C)[C@@H](O)CC(=O)O1)N2C(=O)Oc1ccccc1 (relative stereo) [Example 20, [1S-[1R*,3R*(E),7R*,10S,11R*,12R*,16S*]]-7,11-dihydroxy-8,8,10,12-tetramethyl-3-[1-methyl-2-(2-methyl-4-thiazolyl)ethenyl]-4-oxa-17-azabicyclo[14.1.0]heptadecane-5,9-dione-17-carboxylic acid phenyl ester.] | 1.1 | – | 0.0018
CC(=Cc1csc(C)n1)C1CC2OC2CCCC(C)C(O)C(C)C(=O)C(C)(C)C(O)CC(=O)O1 (centres unmarked) [Epothilone A, reference compound] | – | – | 0.0044
CC(=Cc1csc(C)n1)C1CC2OC2(C)CCCC(C)C(O)C(C)C(=O)C(C)(C)C(O)CC(=O)O1 (centres unmarked) [Epothilone B, reference compound] | – | 0.0008 | –
CCCS(=O)(=O)N1C2CCCC(C)C(O)C(C)C(=O)C(C)(C)C(O)CC(=O)OC(C(C)=Cc3csc(C)n3)CC21 [Example 25, [1S-[1R*,3R*(E),7R*,10S,11R*,12R*,16S*]]-17-N-n-Propylsulfonyl-7,11-dihydroxy-8,8,10,12-tetramethyl-3-[1-methyl-2-(2-methyl-4-thiazolyl)ethenyl]-4-oxa-17-azabicyclo[14.1.0]heptadecane-5,9-dione.] | – | – | 0.094
CC(=Cc1csc(C)n1)C1CC2C(CCCC(C)C(O)C(C)C(=O)C(C)(C)C(O)CC(=O)O1)N2S(=O)(=O)c1cccs1 (stereo not drawn) [Example 26, [1S-[1R*,3R*(E),7R*,10S*,11R*,12R*,16S*]]-17-(2-thienyl)sulfonyl-7,11-dihydroxy-8,8,10,12-tetramethyl-3-[1-methyl-2-(2-methyl-4-thiazolyl)ethenyl]-4-oxa-17-azabicyclo[14.1.0]heptadecane-5,9-dione.] | – | – | 0.03

Source: patent publication US6800653B2, “Epothilone derivatives” (priority 2001, dated 2004)
